In US7318917B2, “Rapid assays for neurotransmitter transporters” (Vanderbilt University, priority 2002, dated 2008):

How the values were obtained:
NET [1] = target: T1, NET (Homo sapiens, UniProt P23975); type: cell-based; design: expressed in transfected cells; settings: FLEXstation, FIG. 10A
Description: Medium for the transfected lines was supplemented with G418 (250 μg/ml). Trypsin, glutamine, penicillin, streptomycin, G418, and phosphate-free DMEM were purchased from Life Technologies, Inc. or obtained from the Vanderbilt Media Core. For all transport assays, cells were plated on poly-D-lysine (0.1 mg/ml)-coated (0.1 mg/ml)-coated 96-well plates. HEK cells were plated at 12,500 cells per well in 96 well plates, HEK-DAT cells were plated at 15,000 cells per well, HEK-NET cells were plated at 20,000 per well, and HEK-SERT cells were plated at 20,000 per well in a volume of 200 uL. HEK, HEK-DAT, and HEK-SERT cells were grown for 48 hours and HEK-NET cells were grown for 72 hours to a confluency of ˜90%.
ASP^+ was obtained from Molecular Probes, Inc. and dissolved in KRH buffer to indicated concentrations. Trypan Blue was obtained from Sigma as a 0.4% solution and diluted to a final concentration of 30 uM in KRH buffer.
To limit the time delay between the addition of ASP^+ and the measurement of accumulation of ASP^+ during the kinetic assays, plates were divided in half and assayed one half at a time. At assay, the medium was removed from wells in the first 6 columns by aspiration, and the cells were incubated with Trypan Blue in KRH buffer for 20 minutes at 37° C.in room air. Then, medium was removed from the wells in the last 6 columns and replaced with Trypan Blue in KRH buffer.

NET [2] = target: T1, NET; assay: Fluorescence anisotropy of ASP+ in HEK-hNET cells; type: cell-based; design: expressed in transfected cells
Description: To evaluate ASP^+ binding to the surface membranes, HEK-hNET cells were exposed to 2 μM ASP^+ with horizontal polarizer (FIG. 5C), with the polarizer rapidly switching to the vertical position. Cells were imaged with alternating polarizations for 3 minutes to measure light intensity in the horizontal (Ih) and vertical (Iv) positions in order to calculate the anisotropy ratio, r=(Iv−gIh)/(Iv+2 g Ih). The factor g was determined by using a half wave plate as described by Blackman et al. (1996). In this formulation, r =0.4 implies an immobile source (Smith et al., 1999). Surface anisotropy was measured from the cell circumference, taken as 1 pixel width. Cytosolic anisotropy was measured near the center of the cell, approximately 5 pixel widths from the membrane.
Notice that rapid accumulation, which peaks at the cell edges (arrows), remains essentially constant between 3 and 180 sec., whereas brightness at the cell center (between arrows) gradually increases over this same period. Furthermore, accumulation at the center occurs at the same rate as phase II (compare phase II slope in FIG. 4 with center elevation in FIG. 5A). […] To test this interpretation the inventors measured the anisotropy of light from cell edges and cell centers.

SERT = target: T2, SERT (Homo sapiens, UniProt P31645); assay: ASP+ accumulation in hSERT-transfected HEK cells by confocal fluorescence microscopy; type: cell-based; settings: 2 mM ASP as printed in the FIG. 3 legend
T2 construct: expressed in transfected cells
T2 sequence (P31645 whole entry): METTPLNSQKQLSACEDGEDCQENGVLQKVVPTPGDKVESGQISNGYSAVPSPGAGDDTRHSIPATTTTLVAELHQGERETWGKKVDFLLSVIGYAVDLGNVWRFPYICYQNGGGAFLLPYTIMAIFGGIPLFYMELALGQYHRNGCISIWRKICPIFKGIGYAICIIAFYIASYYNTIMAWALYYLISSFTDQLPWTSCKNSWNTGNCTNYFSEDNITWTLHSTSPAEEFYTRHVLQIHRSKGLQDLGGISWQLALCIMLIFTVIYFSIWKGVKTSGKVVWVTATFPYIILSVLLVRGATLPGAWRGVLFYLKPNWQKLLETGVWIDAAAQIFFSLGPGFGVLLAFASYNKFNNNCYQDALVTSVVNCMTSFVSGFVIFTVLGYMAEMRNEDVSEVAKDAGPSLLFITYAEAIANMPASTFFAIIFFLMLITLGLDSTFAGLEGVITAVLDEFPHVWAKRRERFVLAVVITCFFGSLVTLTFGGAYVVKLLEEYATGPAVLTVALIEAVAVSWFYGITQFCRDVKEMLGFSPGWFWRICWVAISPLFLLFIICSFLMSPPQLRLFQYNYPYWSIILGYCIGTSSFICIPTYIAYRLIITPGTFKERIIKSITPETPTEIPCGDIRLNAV
Description: (§1) FIGS. 3A-3L. Monoamine transporters interact with ASP^+. Like HEK-hNET cells hDAT and hSERT transfected cells accumulate ASP^+. hNET (FIGS. 3A, 3B & 3C), hDAT (FIGS. 3D, 3E & 3F), hSERT (FIGS. 3G, 3H & 3I) and HEK-293 (FIGS. 3J, 3K & 3L) were exposed to 2 mM ASP for the times indicated in FIGS. 3J, 3K & 3L. The color gradient represented in FIG. 3J denotes the corresponding ASP^+ intensity values.
(§2) HEK-hNET cells were plated on 35 mm glass bottom Petri-dishes (MatTek, Ashland, Mass.) coated with poly-L-lysine three days prior to experimentation. The culture medium was aspirated, cells were immediately mounted on a Zeiss 410 confocal microscope and the microscope was focused on the center of the monolayer of cells. During the confocal measurment cells remain without buffer for approximately thirty seconds. Background autoflourescence was established by collecting images for ten seconds prior to the addition of KRH (see Radiolabeled Transport),[…] Glucose, 10 μM ascorbic acid, 10 μM pargalyine, 10 μM tropolone (Sigma, Boulder CO), and ASP^+. […] The effects of photobleaching on ASP^+ accumulation were determined by examining the rate of ASP^+ fluorescence at various acquisition rates. […]
(§3) The fluorescent images were processed using MetaMorph imaging software (Universal Imaging Corporation, Downington Pa.). […] All cells are subtracted against auto-fluorescence.

NET [3] = target: T1, NET; assay: ASP+ accumulation in HEK-hNET cells by confocal fluorescence microscopy (phase I binding, phase II transport)
DAT = DAT (Homo sapiens, UniProt Q01959); assay: ASP+ accumulation in hDAT-transfected HEK cells by confocal fluorescence microscopy; type: cell-based; design: expressed in transfected cells; host or cells: HEK-293; settings: 2 mM ASP as printed in the FIG. 3 legend
Chain of DAT (Q01959 whole entry): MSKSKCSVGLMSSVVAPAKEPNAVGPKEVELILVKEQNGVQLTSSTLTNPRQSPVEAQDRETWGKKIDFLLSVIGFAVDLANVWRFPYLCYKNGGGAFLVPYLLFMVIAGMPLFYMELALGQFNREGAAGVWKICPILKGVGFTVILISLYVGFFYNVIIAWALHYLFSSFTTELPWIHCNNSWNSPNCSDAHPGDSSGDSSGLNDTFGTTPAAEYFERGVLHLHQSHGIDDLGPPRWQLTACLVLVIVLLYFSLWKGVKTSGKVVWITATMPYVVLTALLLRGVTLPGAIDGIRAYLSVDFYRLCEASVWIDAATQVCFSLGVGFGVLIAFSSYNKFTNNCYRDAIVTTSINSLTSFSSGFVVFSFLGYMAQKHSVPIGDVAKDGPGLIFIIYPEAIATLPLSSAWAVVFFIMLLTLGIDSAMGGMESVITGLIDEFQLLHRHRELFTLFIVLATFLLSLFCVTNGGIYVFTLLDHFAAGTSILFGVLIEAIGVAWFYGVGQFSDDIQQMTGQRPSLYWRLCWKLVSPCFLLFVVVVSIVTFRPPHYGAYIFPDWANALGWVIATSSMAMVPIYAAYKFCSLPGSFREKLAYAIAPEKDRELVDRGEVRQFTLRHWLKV
Description: as §1, §2, §3

T1 sequence (P23975 whole entry): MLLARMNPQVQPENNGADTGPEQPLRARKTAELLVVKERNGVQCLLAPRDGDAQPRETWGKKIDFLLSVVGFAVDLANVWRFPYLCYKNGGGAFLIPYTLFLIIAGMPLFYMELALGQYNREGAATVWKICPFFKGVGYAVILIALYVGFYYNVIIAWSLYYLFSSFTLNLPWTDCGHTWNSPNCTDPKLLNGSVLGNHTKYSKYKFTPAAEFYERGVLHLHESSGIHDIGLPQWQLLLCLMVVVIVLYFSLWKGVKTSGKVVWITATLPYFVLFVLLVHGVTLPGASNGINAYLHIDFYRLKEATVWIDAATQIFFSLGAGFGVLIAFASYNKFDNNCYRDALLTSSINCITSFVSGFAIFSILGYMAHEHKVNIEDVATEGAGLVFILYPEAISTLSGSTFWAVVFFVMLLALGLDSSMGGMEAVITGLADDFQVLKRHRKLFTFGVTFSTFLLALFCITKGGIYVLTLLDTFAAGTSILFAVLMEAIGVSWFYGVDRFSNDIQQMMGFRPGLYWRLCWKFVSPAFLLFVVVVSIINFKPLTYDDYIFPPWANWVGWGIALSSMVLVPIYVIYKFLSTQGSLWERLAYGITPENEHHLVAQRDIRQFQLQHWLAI

## CN(C)c1ccc(C=Cc2cc[n+](C)cc2)cc1 [ASP^+, 4-(4-dimethylaminostyrl)-N-methylpyridinium]
NET [1]
  concentration-response of ASP+ accumulation, NET: concentration-dependent accumulation
NET [2]
  fluorescence anisotropy, solution ASP+: 0.15
SERT
  ASP+ accumulation by hSERT transfected cells: accumulate
NET [3]; 800 nM ASP+, images at 0, 3 and 180 seconds
  ASP+ accumulation by cells expressing NET: accumulate
NET [3]; exponent n of the phase I fit
  Phase I n: 1.15±0.30
NET [3]; exponent n of the phase II fit
  Phase II n: 1.51±0.35
NET [3]; phase I (ASP+ binding) slope as a function of ASP+ concentration
  Phase I Vmax: 10.5±0.94 AFUs/sec
NET [3]; summary statement
  potency of ASP+ accumulation for hNET: sub-μM potency
DAT
  ASP+ accumulation by hDAT transfected cells: accumulate
